According to ChEMBL document CHEMBL1201862, “PubChem BioAssay data set” (2004):
Structures can show the parent of a compound that is named as a salt. Active and inactive are the calls of the source.

Columns and labels:
[1] = target: T1, Endoribonuclease toxin MazF (Escherichia coli K-12, UniProt P0AE70); test: activation of MazEF endoribonuclease cleavage – biochemical, fluorescence, single-stranded RNA substrate, uHTS hits, dose response (AID 588481); assay type: functional
T1 sequence (P0AE70 whole entry): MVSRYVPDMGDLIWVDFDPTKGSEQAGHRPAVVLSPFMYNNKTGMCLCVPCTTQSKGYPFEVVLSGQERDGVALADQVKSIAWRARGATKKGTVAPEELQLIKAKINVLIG

[2] = target: T1, Endoribonuclease toxin MazF; test: substrate-only fluorescence increase artefacts – biochemical, single-stranded RNase substrate, counter-screen for MazEF activator project, dose response (AID 588502); assay type: functional
[3] = viability of uninfected HEp-2 cells – cell-based, HTS, cytotoxicity control for RSV inhibitor project, dose response (AID 2410); assay type: functional; details: human respiratory syncytial virus
Vero [4] = test: cells; assay type: functional, cell-based; details: Chlorocebus sabaeus
Vero [5] = test: cells; assay type: functional; details: Chlorocebus sabaeus
Cytochrome P450 3A4 = Cytochrome P450 3A4 (Homo sapiens, UniProt P08684);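 also: CYP3A4 tested as one member of a cytochrome P450 panel screen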
Cytochrome P450 3A4, sequence (P08684 whole entry): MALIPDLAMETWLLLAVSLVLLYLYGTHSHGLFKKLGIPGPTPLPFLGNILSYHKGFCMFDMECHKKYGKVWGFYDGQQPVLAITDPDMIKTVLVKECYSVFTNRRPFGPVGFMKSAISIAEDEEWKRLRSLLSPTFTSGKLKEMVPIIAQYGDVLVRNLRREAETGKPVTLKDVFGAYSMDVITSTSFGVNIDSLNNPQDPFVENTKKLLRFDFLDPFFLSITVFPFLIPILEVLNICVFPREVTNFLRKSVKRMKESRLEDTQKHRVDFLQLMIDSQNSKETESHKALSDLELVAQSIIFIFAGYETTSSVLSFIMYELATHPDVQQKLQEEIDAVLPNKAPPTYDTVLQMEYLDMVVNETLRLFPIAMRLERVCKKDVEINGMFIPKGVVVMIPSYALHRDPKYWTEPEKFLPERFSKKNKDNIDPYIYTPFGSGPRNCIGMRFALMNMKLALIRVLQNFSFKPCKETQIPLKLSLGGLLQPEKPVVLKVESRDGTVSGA

[6] = system: Streptococcus sp. 'group A'; test: Streptococcus pyogenes SK(-)GAS viability under kanamycin – luminescence, BacTiterGlo, confirmation, counter-screen for streptokinase expression inhibitor project, dose response (AID 1900); assay type: functional, organism-based
Beta-galactosidase = Beta-galactosidase (Escherichia coli, UniProt Q8VNN2); test: PubChem AID 485352; assay type: functional
Beta-galactosidase, sequence (Q8VNN2 whole entry): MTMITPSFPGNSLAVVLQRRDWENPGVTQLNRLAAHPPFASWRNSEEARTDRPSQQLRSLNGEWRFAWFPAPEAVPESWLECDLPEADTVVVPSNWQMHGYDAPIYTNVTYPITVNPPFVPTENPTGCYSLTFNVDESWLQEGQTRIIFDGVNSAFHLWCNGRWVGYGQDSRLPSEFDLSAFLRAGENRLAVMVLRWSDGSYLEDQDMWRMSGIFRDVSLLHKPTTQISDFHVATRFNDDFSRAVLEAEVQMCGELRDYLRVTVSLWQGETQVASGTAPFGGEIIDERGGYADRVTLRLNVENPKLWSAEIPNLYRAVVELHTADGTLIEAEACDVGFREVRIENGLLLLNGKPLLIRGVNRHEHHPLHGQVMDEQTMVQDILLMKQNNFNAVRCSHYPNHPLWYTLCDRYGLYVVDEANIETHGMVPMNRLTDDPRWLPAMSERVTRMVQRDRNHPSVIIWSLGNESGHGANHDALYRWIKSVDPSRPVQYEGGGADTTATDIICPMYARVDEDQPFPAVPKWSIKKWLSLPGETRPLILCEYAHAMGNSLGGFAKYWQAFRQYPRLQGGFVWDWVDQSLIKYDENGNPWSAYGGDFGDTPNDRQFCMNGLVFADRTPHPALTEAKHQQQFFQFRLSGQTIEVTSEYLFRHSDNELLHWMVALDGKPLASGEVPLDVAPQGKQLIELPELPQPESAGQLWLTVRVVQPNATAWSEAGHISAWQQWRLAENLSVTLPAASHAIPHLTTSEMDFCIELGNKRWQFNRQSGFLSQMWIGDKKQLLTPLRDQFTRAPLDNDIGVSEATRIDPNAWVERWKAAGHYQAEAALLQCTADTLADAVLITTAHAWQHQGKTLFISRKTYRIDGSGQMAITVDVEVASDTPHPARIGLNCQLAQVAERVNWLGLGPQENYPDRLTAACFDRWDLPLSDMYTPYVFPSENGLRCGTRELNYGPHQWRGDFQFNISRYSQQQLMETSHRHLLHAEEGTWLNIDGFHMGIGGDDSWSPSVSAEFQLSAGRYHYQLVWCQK

[7] = target: T2, Type-1 angiotensin II receptor (Homo sapiens, UniProt P30556); test: antagonism of angiotensin II type 1 receptor – cell-based, uHTS hits, selectivity assay for APJ receptor antagonist project, dose response (AID 463214); assay type: functional;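 also: antagonist potency against angiotensin II stimulated AT1 response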
T2 sequence (P30556 whole entry): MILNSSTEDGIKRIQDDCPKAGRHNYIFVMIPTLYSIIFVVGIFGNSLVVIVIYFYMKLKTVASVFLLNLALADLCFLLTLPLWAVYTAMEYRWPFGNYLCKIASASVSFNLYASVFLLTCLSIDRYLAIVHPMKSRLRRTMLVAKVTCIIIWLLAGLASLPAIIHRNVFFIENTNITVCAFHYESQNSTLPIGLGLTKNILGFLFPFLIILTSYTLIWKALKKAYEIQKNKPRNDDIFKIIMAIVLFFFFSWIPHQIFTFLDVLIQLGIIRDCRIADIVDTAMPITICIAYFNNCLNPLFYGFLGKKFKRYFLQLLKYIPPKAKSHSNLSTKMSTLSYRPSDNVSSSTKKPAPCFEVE

Streptococcus = test: GAS UMAA2166 growth inhibition – luminescence, BacTiterGlo, counter-screen for streptokinase expression inhibitor project, dose response (AID 1915); assay type: functional, organism-based;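 also: potency for reduction of bacterial viability or growth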
[8] = luciferase reporter signal suppression in cells – H4 neuroglioma cells, luminescence, dose response (AID 1990); assay type: functional, cell-based
[9] = Luminescence Cell-Based Dose Response HTS to Identify Inhibitors of 5'UTR Stem-Loop Driven Prion Protein mRNA Translation in H4 Neuroglioblastoma Cells. [Related pubchem assays: 1827 (Project Summary), 1813 (Primary HTS)]; assay type: functional
[10] = alpha-synuclein stem-loop luciferase translation blockers – H4 neuroglioma cells, luminescence, confirmation (AID 1988); assay type: functional, cell-based
[11] = target: T3, Microphthalmia-associated transcription factor (Homo sapiens, UniProt O75030); test: reducers of TRPM1 reporter luminescence, concentration series – cell-based, SK-MEL-5, cherry-picked, set 3, MITF inhibitor project, dose response (AID 493073); assay type: functional;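 also: SK-MEL-5 melanoma cells with luciferase driven by the MITF target TRPM1 promoter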
T3 sequence (O75030 whole entry): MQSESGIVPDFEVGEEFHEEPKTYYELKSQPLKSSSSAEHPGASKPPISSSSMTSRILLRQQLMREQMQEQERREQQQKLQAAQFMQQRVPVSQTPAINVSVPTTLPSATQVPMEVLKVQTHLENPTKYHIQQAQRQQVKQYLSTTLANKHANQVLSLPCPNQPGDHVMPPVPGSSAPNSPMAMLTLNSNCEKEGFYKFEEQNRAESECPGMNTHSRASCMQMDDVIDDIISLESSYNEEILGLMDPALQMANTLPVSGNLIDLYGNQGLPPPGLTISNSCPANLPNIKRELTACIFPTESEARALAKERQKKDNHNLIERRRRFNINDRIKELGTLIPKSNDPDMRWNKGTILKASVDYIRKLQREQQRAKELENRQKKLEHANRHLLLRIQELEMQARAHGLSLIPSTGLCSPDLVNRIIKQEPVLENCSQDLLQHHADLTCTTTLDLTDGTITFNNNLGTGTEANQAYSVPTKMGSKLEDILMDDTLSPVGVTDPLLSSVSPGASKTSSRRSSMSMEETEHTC

[12] = target: T4, Replicative DNA helicase DnaB (Mycobacterium tuberculosis, UniProt P9WMR3); test: DnaB intein splicing inhibitors, dose response, biochemical, cell-free fluorescence (AID 449749); assay type: functional
T4 sequence (P9WMR3 whole entry): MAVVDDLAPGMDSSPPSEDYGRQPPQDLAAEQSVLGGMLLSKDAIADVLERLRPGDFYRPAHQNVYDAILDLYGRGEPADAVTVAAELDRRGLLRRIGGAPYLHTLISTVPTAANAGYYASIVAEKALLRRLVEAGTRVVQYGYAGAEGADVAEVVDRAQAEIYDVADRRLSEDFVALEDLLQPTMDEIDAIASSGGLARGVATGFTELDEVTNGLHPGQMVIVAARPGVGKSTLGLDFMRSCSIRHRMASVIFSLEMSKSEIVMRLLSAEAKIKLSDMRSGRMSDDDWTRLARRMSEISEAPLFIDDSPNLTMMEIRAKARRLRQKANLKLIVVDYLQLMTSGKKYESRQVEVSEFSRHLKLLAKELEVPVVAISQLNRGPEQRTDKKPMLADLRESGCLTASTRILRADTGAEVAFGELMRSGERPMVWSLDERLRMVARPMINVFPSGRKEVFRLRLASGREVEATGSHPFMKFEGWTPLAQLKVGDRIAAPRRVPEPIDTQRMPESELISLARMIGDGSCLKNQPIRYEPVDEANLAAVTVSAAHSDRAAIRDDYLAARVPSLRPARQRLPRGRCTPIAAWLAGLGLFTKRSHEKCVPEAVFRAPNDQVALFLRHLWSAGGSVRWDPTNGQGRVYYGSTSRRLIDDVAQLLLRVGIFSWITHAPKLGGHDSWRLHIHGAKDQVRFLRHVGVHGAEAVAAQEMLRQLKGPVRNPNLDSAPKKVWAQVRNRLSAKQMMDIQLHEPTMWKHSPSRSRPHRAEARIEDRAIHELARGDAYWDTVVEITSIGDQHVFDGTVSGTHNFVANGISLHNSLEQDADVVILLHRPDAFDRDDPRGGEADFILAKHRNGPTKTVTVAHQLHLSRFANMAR

Protein RecA = target: T5, Protein RecA (Mycobacterium tuberculosis, UniProt P9WHJ3); test: Fluorescence Cell-Free Homogeneous Dose Retest to Identify Inhibitors of RecA-Intein Splicing Activity. [Related pubchem assays (depositor defined):AID2097, AID2223, AID489010, AID492950]; assay type: functional
T5 sequence (P9WHJ3 whole entry): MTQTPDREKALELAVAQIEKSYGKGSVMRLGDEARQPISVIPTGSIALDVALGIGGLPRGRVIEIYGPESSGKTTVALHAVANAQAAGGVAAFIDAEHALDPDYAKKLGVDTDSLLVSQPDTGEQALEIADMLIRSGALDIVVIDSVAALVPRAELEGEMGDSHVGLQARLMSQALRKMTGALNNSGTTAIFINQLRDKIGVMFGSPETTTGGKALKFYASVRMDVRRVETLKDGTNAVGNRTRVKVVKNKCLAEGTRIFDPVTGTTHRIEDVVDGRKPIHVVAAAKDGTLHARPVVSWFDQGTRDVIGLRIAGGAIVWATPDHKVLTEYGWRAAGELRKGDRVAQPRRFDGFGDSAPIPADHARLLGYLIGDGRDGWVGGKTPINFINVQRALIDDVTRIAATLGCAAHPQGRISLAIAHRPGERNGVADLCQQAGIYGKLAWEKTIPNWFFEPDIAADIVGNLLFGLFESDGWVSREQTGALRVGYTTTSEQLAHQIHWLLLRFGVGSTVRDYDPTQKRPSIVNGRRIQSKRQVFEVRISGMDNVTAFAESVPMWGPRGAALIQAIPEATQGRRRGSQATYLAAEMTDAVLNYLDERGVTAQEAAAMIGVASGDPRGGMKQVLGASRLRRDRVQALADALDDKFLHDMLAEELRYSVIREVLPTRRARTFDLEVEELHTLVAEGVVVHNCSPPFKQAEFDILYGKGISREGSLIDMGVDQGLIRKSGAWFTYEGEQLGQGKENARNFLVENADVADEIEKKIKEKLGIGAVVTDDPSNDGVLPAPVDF

Cysteine protease ATG4B = target: T6, Cysteine protease ATG4B (Homo sapiens, UniProt Q9Y4P1); assay type: functional;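 also: Fluorescence-based dose-response confirmation assay measuring inhibition of ATG4B activity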
T6 sequence (Q9Y4P1 whole entry): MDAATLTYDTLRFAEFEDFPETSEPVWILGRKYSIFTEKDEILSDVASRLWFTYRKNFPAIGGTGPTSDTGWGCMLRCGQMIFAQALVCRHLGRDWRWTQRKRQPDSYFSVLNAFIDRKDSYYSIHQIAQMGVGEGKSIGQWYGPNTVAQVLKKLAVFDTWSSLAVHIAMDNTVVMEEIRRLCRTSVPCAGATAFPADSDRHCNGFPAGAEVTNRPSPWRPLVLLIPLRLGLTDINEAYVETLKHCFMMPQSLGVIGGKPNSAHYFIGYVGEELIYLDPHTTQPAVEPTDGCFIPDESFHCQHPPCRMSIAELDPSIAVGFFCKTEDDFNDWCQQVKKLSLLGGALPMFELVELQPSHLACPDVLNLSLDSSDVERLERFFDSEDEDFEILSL

Phospholipase A2 = Phospholipase A2 (Homo sapiens, UniProt P04054); assay type: functional;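 also: confirmatory dose-response counterscreen on phospholipase A2, testing hits that came from an ultra-high-throughput screen for ATG4B inhibitors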
Phospholipase A2, sequence (P04054 whole entry): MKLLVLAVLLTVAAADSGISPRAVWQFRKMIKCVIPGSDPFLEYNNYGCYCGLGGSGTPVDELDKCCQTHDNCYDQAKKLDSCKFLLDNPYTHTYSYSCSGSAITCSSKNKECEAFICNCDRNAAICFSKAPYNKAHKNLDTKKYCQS

Vero [13] = test: viability of Vero cells under compound – cytotoxicity control for flavivirus capping enzyme inhibitors (AID 588742); assay type: functional; details: Chlorocebus sabaeus
Genome polyprotein = Genome polyprotein (dengue virus type 2, UniProt P29990); test: flavivirus cap methylation enzyme inhibition – biochemical, confirmation dose response, primary screen (AID 588689); assay type: functional
Genome polyprotein, sequence (P29990 2492-3391 limits assumed): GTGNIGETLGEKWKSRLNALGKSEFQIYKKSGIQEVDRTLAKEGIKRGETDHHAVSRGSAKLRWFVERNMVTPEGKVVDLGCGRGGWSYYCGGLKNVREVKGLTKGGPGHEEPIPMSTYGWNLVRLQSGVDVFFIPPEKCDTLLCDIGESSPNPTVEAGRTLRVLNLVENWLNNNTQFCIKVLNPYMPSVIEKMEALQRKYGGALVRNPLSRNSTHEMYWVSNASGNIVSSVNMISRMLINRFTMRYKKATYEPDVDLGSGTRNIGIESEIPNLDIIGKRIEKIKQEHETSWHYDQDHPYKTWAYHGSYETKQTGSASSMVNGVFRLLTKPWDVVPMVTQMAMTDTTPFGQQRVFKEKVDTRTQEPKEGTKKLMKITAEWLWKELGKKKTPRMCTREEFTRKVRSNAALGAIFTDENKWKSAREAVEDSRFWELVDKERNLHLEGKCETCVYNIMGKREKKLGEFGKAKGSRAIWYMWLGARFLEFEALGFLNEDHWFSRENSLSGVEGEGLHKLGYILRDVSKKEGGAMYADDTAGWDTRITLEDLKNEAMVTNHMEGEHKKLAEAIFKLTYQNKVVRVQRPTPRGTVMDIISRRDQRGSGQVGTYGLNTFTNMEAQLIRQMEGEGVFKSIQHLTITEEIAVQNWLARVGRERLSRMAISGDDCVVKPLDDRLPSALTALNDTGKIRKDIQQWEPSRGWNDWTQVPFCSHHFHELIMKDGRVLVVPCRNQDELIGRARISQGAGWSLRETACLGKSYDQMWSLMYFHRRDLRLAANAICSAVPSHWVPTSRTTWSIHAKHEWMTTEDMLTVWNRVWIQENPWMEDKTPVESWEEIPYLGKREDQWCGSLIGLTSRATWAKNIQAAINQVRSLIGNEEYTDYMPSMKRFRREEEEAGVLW

[14] = target: T7, Ubiquitin-conjugating enzyme E2 N (Homo sapiens, UniProt P61088); assay type: functional;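 also: Dose-response confirmation in a TR-FRET assay detecting UBC13-driven polyubiquitin chain formation, inhibition measured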
T7 sequence (P61088 whole entry): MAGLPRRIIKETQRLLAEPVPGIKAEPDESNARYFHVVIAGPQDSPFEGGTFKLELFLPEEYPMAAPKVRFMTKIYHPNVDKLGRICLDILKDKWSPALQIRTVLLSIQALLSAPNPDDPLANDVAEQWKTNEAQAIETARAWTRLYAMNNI

[15] = target: Voltage-gated inwardly rectifying potassium channel KCNH2 (Homo sapiens, UniProt Q12809); details: Potency;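 also: confirmatory quantitative high-throughput screen measuring inhibition of hERG channel activity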
Voltage-gated inwardly rectifying potassium channel KCNH2, sequence (Q12809 whole entry): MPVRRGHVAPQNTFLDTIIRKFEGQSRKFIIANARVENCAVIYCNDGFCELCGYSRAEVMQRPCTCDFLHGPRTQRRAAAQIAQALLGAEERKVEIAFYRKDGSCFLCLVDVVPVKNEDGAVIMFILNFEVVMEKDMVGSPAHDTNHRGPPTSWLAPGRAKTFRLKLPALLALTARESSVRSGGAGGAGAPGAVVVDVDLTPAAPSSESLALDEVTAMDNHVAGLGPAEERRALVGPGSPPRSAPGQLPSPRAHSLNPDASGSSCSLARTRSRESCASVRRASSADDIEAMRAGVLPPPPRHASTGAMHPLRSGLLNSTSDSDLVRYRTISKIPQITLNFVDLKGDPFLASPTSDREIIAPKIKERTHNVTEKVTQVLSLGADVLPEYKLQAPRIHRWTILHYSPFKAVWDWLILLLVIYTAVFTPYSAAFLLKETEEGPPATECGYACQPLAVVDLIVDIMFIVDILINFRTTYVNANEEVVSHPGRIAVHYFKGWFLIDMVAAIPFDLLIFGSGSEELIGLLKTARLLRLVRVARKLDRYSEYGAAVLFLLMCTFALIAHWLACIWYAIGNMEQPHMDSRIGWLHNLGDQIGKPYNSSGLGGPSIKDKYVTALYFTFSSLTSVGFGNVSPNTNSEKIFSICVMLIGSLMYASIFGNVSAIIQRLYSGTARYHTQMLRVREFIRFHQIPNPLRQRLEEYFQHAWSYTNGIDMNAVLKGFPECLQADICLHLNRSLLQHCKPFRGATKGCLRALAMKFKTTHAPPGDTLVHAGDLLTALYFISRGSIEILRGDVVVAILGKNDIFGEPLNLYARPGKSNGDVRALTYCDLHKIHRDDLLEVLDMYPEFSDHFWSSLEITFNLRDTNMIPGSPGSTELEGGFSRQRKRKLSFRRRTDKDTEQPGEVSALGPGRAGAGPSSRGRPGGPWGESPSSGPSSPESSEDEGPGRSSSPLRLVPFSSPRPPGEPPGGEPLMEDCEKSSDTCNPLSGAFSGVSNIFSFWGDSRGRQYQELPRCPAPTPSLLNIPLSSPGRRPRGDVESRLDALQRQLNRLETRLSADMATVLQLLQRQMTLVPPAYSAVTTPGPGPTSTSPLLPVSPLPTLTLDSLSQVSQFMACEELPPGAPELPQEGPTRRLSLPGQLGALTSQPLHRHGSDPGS

Question: With `CNc1ccc(/C=C(\C#N)C(=O)Nc2ccccn2)cc1[N+](=O)[O-]` as the compound, how does the EC50 [1] read?
Answer: > 99 µM (inactive)

Question: What about the EC50 [2] of the same compound?
Answer: 39.2 µM (inactive)

Question: Which EC50 [1] does the source give for `COC(=O)CSc1nc2cc(OC)ccc2cc1C#N` here?
Answer: > 99 µM (inactive)

Question: What about the EC50 [2] of the same compound?
Answer: 48.4 µM (inactive)

Question: Which CC50 [3] does the source give for `CCOC(=O)c1c(-c2cccc(C)c2)csc1NC(=O)c1c(-c2ccccc2)noc1C` here?
Answer: 5.17 µM (active)

Question: What about the IC50 (Vero [4]) of the same compound?
Answer: 1.43 µM (active)

Question: And the CC50 (Vero [5])?
Answer: > 25 µM (active)

Question: What about the AC50 (Cytochrome P450 3A4) of the same compound?
Answer: 5.62 µM (inconclusive)

Question: And the IC50 (cells)?
Answer: 9.89 µM (active)

Question: What does the source list for `O=C(CN1c2ccccc2Sc2ccccc21)NNC(=S)Nc1ccc(Cl)cc1`?
Answer: EC50 [6]: 3.35 µM (active); EC50 (Beta-galactosidase): > 40 µM (inactive); IC50 [7]: > 40 µM (not active); EC50 (Streptococcus): 3.6 µM (active)

Question: For `COc1ccc(/C=C/C(=O)NC(=S)NNC(=O)c2c(-c3ccccc3)noc2C)cc1`, which EC50 (Beta-galactosidase) is on record?
Answer: > 40 µM (inactive)

Question: What about the IC50 [7] of the same compound?
Answer: 35.5 µM (not active)

Question: What does the source list for `O=C1c2ccccc2C(=O)c2c1ncn2-c1ccccc1`?
Answer: EC50 [8]: 13.1 µM (active); EC50 [9]: 15.6 µM (active); EC50 [10]: 9.51 µM (active); AC50 [11]: 7.33 µM (active); AC50 [12]: 57.3 µM (active); EC50 (Protein RecA): 229 µM (active)

Question: Which results are given for `Cc1ccccc1S(=O)(=O)N1[C@@H](c2ccc(Br)cc2)C(C(=O)O)=CC[C@H]1c1ccc(Cl)cc1`?
Answer: IC50 (Cysteine protease ATG4B): 7.71 µM (active); IC50 (Phospholipase A2): 6.72 µM (active); CC50 (Vero [13]): > 40 µM (active); IC50 (Genome polyprotein): 41.4 µM (active)

Question: With `CN(C)c1ccc(C=C2C(=O)NC(=S)NC2=O)cc1` as the compound, how does the CC50 (Vero [13]) read?
Answer: 31.4 µM (active)

Question: And the IC50 (Vero [4])?
Answer: > 25 µM (active)

Question: And the CC50 (Vero [5])?
Answer: 22.2 µM (active)

Question: Which results are given for `CC1(C)Oc2ccc3ccc(=O)oc3c2C(/C=N/NC(N)=O)=C1O`?
Answer: EC50 (Beta-galactosidase): > 40 µM (inactive); IC50 [7]: > 40 µM (not active)

Question: With `N=c1n(CC(=O)c2ccc(Br)cc2)c2ccccc2n1Cc1ccccc1` as the compound, how does the IC50 [14] read?
Answer: > 20 µM (inactive)

Question: And the AC50 [11]?
Answer: 6.41 µM (active)

Question: Which AC50 [15] does the source give for `CCOc1ccc2nc(N)sc2c1` here?
Answer: 28.2 µM (inconclusive)

Question: Which AC50 [15] does the source give for `c1ccc2c(c1)-c1cccc3cccc-2c13` [FLUORANTHENE] here?
Answer: 12.6 µM (inconclusive)

Question: For `CN1CCC(=C2c3ccccc3CC(=O)c3sccc32)CC1` [KETOTIFEN FUMARATE], which AC50 [15] is on record?
Answer: 22.4 µM (inconclusive)
